Experimental data published in patent US9635879B2, “Sweetener” (Tate & Lyle Ingredients Americas LLC, priority 2013, dated 2017).
Marks after values point to notes of the source that are not given here.

How the values were obtained:
[1] = Round table sensory evaluation with test panelists: sucrose equivalent value (SEV) against sucrose reference samples; format: in vivo; settings: for Sweetness (mean SEV), two-way ANOVA, grouping (Duncan): second Sweetness line, superscripts = Duncan grouping, level of significance 5%
Procedure: Round table evaluations were performed with test panelists. Equal sweet 10 SEV concentrations in neutral pH water were made for allulose, fructose and sucralose, as well as a composition comprising allulose, fructose and sucralose. The components of the test compositions are described in the below tables. The mixed compositions were calculated using the Beidler mixture equation for the sweeteners. The Beidler mixture equation for sweeteners is as follows: […]
The concentration of each component in the mixture in ppm is divided by SEV (c/R) and is plotted against concentration, c. The slope of the linear regression is the maximum SEV (Rmax). The y-intercept of the linear regression multiplied by Rmax is the half-maximal sweetness concentration, 1/K. Rmax and 1/K are the two parameters used in the Beidler equation.
The equal-molar mixture was tested against reference samples for the panelists to determine SEV values. […] The test samples were served in 2 ounce (approximately 60 ml) soufflé cups coded with 3-digit codes at room temperature. A two minute wait period between samples was enforced. Water and unsalted crackers was available for the panelists to clear their palates before and during testing. EyeQuestion was used for ballot development and recording of results. Results were collected in EyeQuestion for calculating approximate SEV level of each test sample. The test products analyzed in this experiment are described below in Table 1.

[2] = times as sweet as sucrose; cited from earlier work
[3] = neutral pH water, room temperature, samples made to equal sweet 10 SEV, references 4-14% sucrose

Row | SMILES | Mean sucrose equivalent value (SEV) (Mean 1) [1, 3] | Sweetness (mean SEV), two-way ANOVA, grouping (Duncan) [1] | Sweetness relative to sucrose [2] | Sweetness (mean SEV), two-way ANOVA, level of significance (Duncan) ([1]; first Sweetness line, superscripts = level of significance (Duncan)) | Median sucrose equivalent value (SEV) (Median 1) [1, 3]
1 | O=C(CO)[C@@H](O)[C@H](O)[C@H](O)CO [Fructose, fructose] | 10.14 | 10.14^b-c |  |  | 
2 | O=C(CO)C(O)C(O)C(O)CO (stereo not drawn) [Allulose, allulose] | 10.14 | 10.14^b-c |  |  | 
3 | OC[C@H]1O[C@H](O[C@]2(CCl)O[C@H](CCl)[C@@H](O)[C@@H]2O)[C@H](O)[C@@H](O)[C@H]1Cl [Sucralose, sucralose] | 9.286 | 9.29^c | approximately 600 times | 9.29 | 10
